Laboratory results taken from ChEMBL document CHEMBL1201862, “PubChem BioAssay data set” (2004).
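Briefly, cells in 96-well plates were exposed to five compound concentrations for 48 h, and endpoints were estimated by linear interpolation. Abbreviation: GI50, concentration required for 50% inhibition of growth.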 Calls of active or inactive are those of the source. Cut-off read from the data, not from the text of the source: active = GI50 up to about 1.1 µM and inactive = higher.

Legend:
Test in all cases: growth of human tumour cells (NCI), 48 h
HOP-18 = tested on: HOP-18
ACHN = tested on: ACHN
A549 = tested on: A549
HOP-92 = tested on: HOP-92
COLO 205 = tested on: COLO 205
HCT-116 = tested on: HCT-116
HCT-15 = tested on: HCT-15
IGROV-1 = tested on: IGROV-1
SF-539 = tested on: SF-539
OVCAR-4 = tested on: OVCAR-4
SNB-19 = tested on: SNB-19
SN12C = tested on: SN12C
DMS-273 = tested on: DMS-273
SK-MEL-5 = tested on: SK-MEL-5
KM-20L2 = tested on: KM-20L2
DLD-1 = tested on: DLD-1
LOX IMVI = tested on: LOX IMVI
RXF 393 = tested on: RXF 393
NCI-H522 = tested on: NCI-H522
CAKI-1 = tested on: CAKI-1
NCI-H23 = tested on: NCI-H23
OVCAR-5 = tested on: OVCAR-5
OVCAR-3 = tested on: OVCAR-3
OVCAR-8 = tested on: OVCAR-8
TK-10 = tested on: TK-10
HOP-62 = tested on: HOP-62
U-251 = tested on: U-251
SK-MEL-2 = tested on: SK-MEL-2
LXFL 529 = tested on: LXFL 529
CCRF-CEM = tested on: CCRF-CEM
SK-OV-3 = tested on: SK-OV-3
SF-268 = tested on: SF-268
KM12 = tested on: KM12
SNB-78 = tested on: SNB-78
M19-MEL = tested on: M19-MEL
XF498 = tested on: XF498
NCI-H226 = tested on: NCI-H226
RXF 631 = tested on: RXF 631
SF-295 = tested on: SF-295
UACC-62 = tested on: UACC-62
K562 = tested on: K562
MOLT-4 = tested on: MOLT-4
DMS-114 = tested on: DMS-114
SR = tested on: SR
SK-MEL-28 = tested on: SK-MEL-28
UO-31 = tested on: UO-31
RPMI-8226 = tested on: RPMI-8226
EKVX = tested on: EKVX

COc1cccc(NC(=O)N/C(=C/c2ccc(N(CCC#N)CCC#N)cc2)NC(=O)c2cc([N+](=O)[O-])ccc2Cl)c1
GI50 (HOP-18): > 100 µM (inactive) | GI50 (ACHN): > 100 µM (inactive) | GI50 (A549): > 100 µM (inactive) | GI50 (HOP-92): > 100 µM (inactive) | GI50 (COLO 205): > 100 µM (inactive) | GI50 (HCT-116): > 100 µM (inactive) | GI50 (HCT-15): 95.5 µM | GI50 (IGROV-1): > 100 µM (inactive) | GI50 (SF-539): > 100 µM (inactive) | GI50 (OVCAR-4): > 100 µM (inactive) | GI50 (SNB-19): > 100 µM (inactive) | GI50 (SN12C): > 100 µM (inactive) | GI50 (DMS-273): > 100 µM (inactive) | GI50 (SK-MEL-5): > 100 µM (inactive) | GI50 (KM-20L2): > 100 µM (inactive) | GI50 (DLD-1): 89.5 µM (inactive) | GI50 (LOX IMVI): 71.4 µM (inactive) | GI50 (RXF 393): > 100 µM (inactive) | GI50 (NCI-H522): 26.5 µM (inactive) | GI50 (CAKI-1): > 100 µM (inactive) | GI50 (NCI-H23): > 100 µM (inactive) | GI50 (OVCAR-5): > 100 µM (inactive) | GI50 (OVCAR-3): > 100 µM (inactive) | GI50 (OVCAR-8): > 100 µM (inactive) | GI50 (TK-10): > 100 µM (inactive) | GI50 (HOP-62): > 100 µM (inactive) | GI50 (U-251): > 100 µM (inactive) | GI50 (SK-MEL-2): > 100 µM (inactive) | GI50 (LXFL 529): > 100 µM (inactive) | GI50 (CCRF-CEM): 77.8 µM (inactive) | GI50 (SK-OV-3): > 100 µM (inactive) | GI50 (SF-268): > 100 µM (inactive) | GI50 (KM12): > 100 µM (inactive) | GI50 (SNB-78): > 100 µM (inactive) | GI50 (M19-MEL): > 100 µM (inactive) | GI50 (XF498): > 100 µM (inactive) | GI50 (NCI-H226): > 100 µM (inactive) | GI50 (RXF 631): > 100 µM (inactive) | GI50 (SF-295): > 100 µM (inactive) | GI50 (UACC-62): 89.3 µM (inactive) | GI50 (K562): > 100 µM (inactive) | GI50 (MOLT-4): 35 µM (inactive) | GI50 (DMS-114): 37.2 µM (inactive) | GI50 (SR): 10.1 µM (inactive) | GI50 (SK-MEL-28): 64 µM (inactive) | GI50 (UO-31): > 100 µM (inactive) | GI50 (RPMI-8226): 51.6 µM (inactive) | GI50 (EKVX): > 100 µM (inactive)
